Test systems include 786-0; A549; ACHN; BT-549; CCRF-CEM; COLO 205; DU-145; HCT-15; HOP-92; MCF7; MDA-MB-435; Malme-3M; NCI-H522; NCI/ADR-RES; OVCAR-8; SK-MEL-28; SN12C; SNB-75; SW-620; T47D.
Holding throughout (assay): DTP human tumour cell line panel, 48 h

Consider 8 compounds from ChEMBL document CHEMBL1201862, “PubChem BioAssay data set” (2004).

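Cells were grown in 96-well plates and exposed to each compound for 48 hours at five concentrations; endpoints were interpolated linearly between bracketing concentrations, or set to the highest concentration if not reached. GI50: concentration for 50% inhibition of growth.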 Calls of active or inactive are those of the source. Rule as the data show it: active = GI50 up to about 1.1 µM and inactive = higher. Non-standard residues stand in square brackets, D forms with d. Residues, ends and D or L forms follow the SMILES beside them. Ava = NCCCCC(=O)O; Mpa = O=C(O)CCS Bounds are passed on as bounds.

The term GI50 denotes the concentration that inhibits growth by half. `CCOC(=O)NC(NNc1ccc([N+](=O)[O-])cc1[N+](=O)[O-])(C(F)(F)F)C(F)(F)F`: the GI50 in the assay on 786-0 is 43.9 µM (inactive); in the assay with A549, 47 µM (inactive); with ACHN, 43.3 µM (inactive); in the assay with BT-549, 25.5 µM (inactive); in the assay on CCRF-CEM, 20.6 µM (inactive); with COLO 205, 16.1 µM (inactive). The GI50 is 40.3 µM (inactive) in the assay on DU-145; 27.9 µM in the assay on HCT-15; 12.7 µM (inactive) in the assay with HOP-92; 62.5 µM (inactive) in the assay with MCF7; 42.6 µM (inactive) in the assay on MDA-MB-435; 53.3 µM (inactive) in the assay on Malme-3M. Further, the GI50 with NCI-H522 is 30.5 µM (inactive); in the assay with NCI/ADR-RES it was 33.3 µM (inactive); with OVCAR-8, 30.8 µM (inactive); in the assay on SK-MEL-28, 52.4 µM (inactive); in the assay on SN12C, 27.7 µM (inactive); in the assay on SNB-75 it was 45.7 µM (inactive). Further, the GI50 in the assay on SW-620 was 40.3 µM (inactive); in the assay on T47D, 35.1 µM (inactive).

With `CCOC(=O)c1ccc(NC2Oc3cc4c(cc3C(c3cc(OC)c(OC)c(OC)c3)C2C)OCO4)cc1` (stereo not given), the GI50 in the assay with 786-0 is 0.556 µM (active); with A549 it was 0.847 µM (active); in the assay on ACHN it was 0.769 µM (active); in the assay with BT-549 it was 0.474 µM (active); in the assay with CCRF-CEM, 0.371 µM (active); in the assay with COLO 205 it was 0.236 µM (active). Further, the GI50 in the assay on DU-145 was 0.48 µM (active); in the assay with HCT-15, 0.506 µM; with HOP-92, 0.938 µM (active); in the assay with MCF7, 0.402 µM (active); in the assay on MDA-MB-435, 0.148 µM (active); in the assay with Malme-3M, 0.216 µM (active). Besides, the GI50 in the assay with NCI-H522 is 0.416 µM (active); in the assay with NCI/ADR-RES it was 0.369 µM (active); with OVCAR-8, 0.935 µM (active); with SK-MEL-28, 32.4 µM (inactive); in the assay on SN12C it was 1.35 µM (inactive); in the assay with SNB-75 it was 0.304 µM (active). The GI50 with SW-620 was 0.339 µM (active); in the assay with T47D it was 0.486 µM (active).

For the compound `COc1cc(O)c(/C=N/N=C(\N)NO)c(OC)c1`, the GI50 in the assay on 786-0 was > 10 µM (inactive); with A549, > 10 µM (inactive); in the assay on ACHN, 9.14 µM (inactive); in the assay on BT-549, > 10 µM (inactive); in the assay with CCRF-CEM it was 5.57 µM (inactive); in the assay on COLO 205, > 10 µM (inactive). For the same compound, the GI50 in the assay with DU-145 is 6.24 µM (inactive); in the assay with HCT-15 it was 5.04 µM; with HOP-92, > 10 µM (inactive); in the assay on MCF7, > 10 µM (inactive); with MDA-MB-435, > 10 µM (inactive); with Malme-3M, > 10 µM (inactive). Further, the GI50 in the assay on NCI-H522 was > 10 µM (inactive); with NCI/ADR-RES, 5.04 µM (inactive); in the assay on OVCAR-8, > 10 µM (inactive); in the assay with SK-MEL-28 it was > 10 µM (inactive); with SN12C, > 10 µM (inactive); in the assay on SNB-75 it was 1.56 µM (inactive). The GI50 in the assay on SW-620 and in the assay on T47D was > 10 µM (inactive) each time.

In the case of `CCC(=O)Nc1ccc(NS(=O)(=O)c2ccc(Cl)cc2)cc1`, the GI50 with 786-0, with A549, in the assay with ACHN, in the assay on BT-549, in the assay on CCRF-CEM and in the assay on COLO 205 was > 100 µM (inactive) throughout. The GI50 was > 100 µM (inactive) with DU-145; above 100 µM with HCT-15; > 100 µM (inactive) in the assay on HOP-92; > 100 µM (inactive) with MCF7; > 100 µM (inactive) with MDA-MB-435; > 100 µM (inactive) with Malme-3M. For the same compound, the GI50 in the assay on NCI-H522, with NCI/ADR-RES, in the assay on OVCAR-8, with SK-MEL-28, in the assay on SN12C and in the assay with SNB-75 was > 100 µM (inactive) throughout. Also, the GI50 in the assay with SW-620 and in the assay with T47D was > 100 µM (inactive) each time.

With `CN(N)/N=N/c1[nH]cnc1C(N)=O`, the GI50 in the assay on 786-0 is 12.1 µM (inactive); in the assay on A549 it was > 100 µM (inactive); in the assay with ACHN, 22.3 µM (inactive); in the assay with BT-549, 42.2 µM (inactive); in the assay with CCRF-CEM, 2.72 µM (inactive); with COLO 205, 17.5 µM (inactive). Also, the GI50 in the assay on DU-145 was 5.57 µM (inactive); with HCT-15 it was 22.8 µM; in the assay on HOP-92 it was 17.5 µM (inactive); in the assay on MCF7 it was 48.4 µM (inactive); in the assay with MDA-MB-435, 25.2 µM (inactive); in the assay with Malme-3M it was 4.55 µM (inactive). Besides, the GI50 is 30.5 µM (inactive) with NCI-H522; 5.35 µM (inactive) in the assay with NCI/ADR-RES; 3.14 µM (inactive) in the assay with OVCAR-8; > 100 µM (inactive) in the assay on SK-MEL-28; 4.82 µM (inactive) in the assay with SN12C; 4.66 µM (inactive) in the assay on SNB-75. Further, the values for the GI50 in the assay with SW-620 and in the assay with T47D were 9.75 µM (inactive) and > 34.5 µM (inactive), respectively.

Turning to `COc1ccc(N2C(=O)C3c4[nH]c5ccc(C)cc5c4C4CCC(c5ccccc5)CC4C3C2=O)cc1` (stereo not given), the GI50 with 786-0 was 9.64 µM (inactive); in the assay on A549 it was > 89.1 µM (inactive); in the assay with ACHN it was 32.6 µM (inactive); with BT-549, 42.3 µM (inactive); in the assay on CCRF-CEM, 4.9 µM (inactive); in the assay with COLO 205, > 100 µM (inactive). Also, the GI50 is > 100 µM (inactive) in the assay on DU-145; above 75.9 µM with HCT-15; 14.6 µM (inactive) in the assay with HOP-92; > 83.6 µM (inactive) with MCF7; > 100 µM (inactive) in the assay with MDA-MB-435; > 100 µM (inactive) in the assay with Malme-3M. Besides, the GI50 with NCI-H522 is > 100 µM (inactive); in the assay with NCI/ADR-RES it was > 100 µM (inactive); with OVCAR-8 it was 22.5 µM (inactive); with SK-MEL-28, > 100 µM (inactive); in the assay on SN12C, > 100 µM (inactive); in the assay with SNB-75, 4.02 µM (inactive). Besides, the GI50 with SW-620 and in the assay on T47D was > 100 µM (inactive) each time.

In the case of `CC(=O)N/N=C1/CC[C@@]2(C)C(=CC[C@H]3C4CCC(C(C)CCCC(C)C)[C@@]4(C)CCC32)C1(C)C` (stereo not given in full), the GI50 in the assay with 786-0 was 43.7 µM (inactive); in the assay with A549, 31.1 µM (inactive); in the assay on ACHN it was 62.4 µM (inactive); in the assay on BT-549, > 100 µM (inactive); in the assay with CCRF-CEM, 13.8 µM (inactive); in the assay on COLO 205, 32.9 µM (inactive). Further, the GI50 with DU-145 is > 100 µM (inactive); in the assay on HCT-15, 40.6 µM; with HOP-92, > 100 µM (inactive); in the assay with MCF7, 53.7 µM (inactive); in the assay on MDA-MB-435, 82 µM (inactive); in the assay with Malme-3M, > 100 µM (inactive). For the same compound, the GI50 was 58.9 µM (inactive) in the assay on NCI-H522; 47.8 µM (inactive) with NCI/ADR-RES; 51.1 µM (inactive) with OVCAR-8; > 100 µM (inactive) in the assay with SK-MEL-28; 51.4 µM (inactive) in the assay with SN12C; > 100 µM (inactive) in the assay on SNB-75. For the same compound, the GI50 in the assay with SW-620 was 53.3 µM (inactive); in the assay on T47D it was 70.5 µM (inactive).

`CC(NC(=O)CCS)C(=O)NC(C)C(=O)NC(Cc1c[nH]c2ccccc12)C(=O)NC(Cc1c[nH]cn1)C(=O)NC(CO)C(=O)NC(Cc1c[nH]c2ccccc12)C(=O)NCCCCC(=O)NC(C)C(=O)NC(CCC(N)=O)C(=O)NC(CCCCN)C(=O)NC(C)C(=O)NC(CCCNC(=N)N)C(=O)NC(CCCCN)C(N)=O` (stereo not given) ([Mpa]AAWHSW[Ava]AQKARK-NH2; configuration not given here): the GI50 is 31.6 µM (inactive) with 786-0; > 100 µM (inactive) with A549; > 100 µM (inactive) in the assay on ACHN; > 100 µM (inactive) with BT-549; 79.4 µM (inactive) in the assay with CCRF-CEM; 43.5 µM (inactive) in the assay with COLO 205. Besides, the GI50 with DU-145 was 87.9 µM (inactive); with HCT-15 it was above 100 µM; with HOP-92 it was > 100 µM (inactive); in the assay with MCF7, > 100 µM (inactive); with MDA-MB-435, 45.9 µM (inactive); in the assay on Malme-3M, 19 µM (inactive). The GI50 was > 100 µM (inactive) in the assay with NCI-H522; > 100 µM (inactive) with NCI/ADR-RES; 90.2 µM (inactive) in the assay with OVCAR-8; 34.7 µM (inactive) in the assay with SK-MEL-28; > 100 µM (inactive) with SN12C; > 100 µM (inactive) with SNB-75. In addition, the GI50 in the assay with SW-620 was 94.4 µM (inactive); with T47D, 23.9 µM (inactive).
